# Laboratory results as given in PMC7767506, “Synthesis and Characterization of Store-Operated Calcium Entry Inhibitors Active in the Submicromolar Range” (International Journal of Molecular Sciences, 2020).
# Several values for one entry are separate records, joined by “and”; a condition that tells them apart may be missing. Equal entries are not always repeated. Entries after “also recorded” stand apart in the source; their conditions may differ. Where two headings read alike, the source gives them in different places.
# Tests used:
# [1] = tested on: caspase-3 activity in Jurkat cells; assay: Fluorometric caspase-3 activity assay (Ac-DEVD-AFC) in Jurkat cells; assay type: cell-based, human
# Description: To verify the mechanism of cell death induced by compound P11, we next performed caspase-3 activity assays using the fluorogenic Ac-DEVD-AFC substrate as well as a TUNEL assay.
# Caspase-3 activity was measured using the fluorogenic substrate Ac-DEVD-AFC (Tebu-bio, Le Perray-en-Yvelines, France) according to the manufacturer’s instructions. Briefly, 48-well plates were seeded with 10^6 Jurkat T cells per well. Cells were then incubated for 24 h with 0, 1, or 10 µg/mL PHA and 0 to 1 µM P11 in complete culture medium. After 24 h, cells were collected and lysed in RIPA lysis buffer supplemented with protease inhibitor cocktails (Life Science Biorad, Marnes la Coquette, France). The protein samples were quantified using the DC protein assay reagent (Biorad, Les Ulis, France). Cell lysates (50 µg) were diluted with reaction buffer (200 mM Hepes pH 7.4, 1 mM EDTA, 20% sucrose and 20 mM dithiothreitol) and incubated with the fluorogenic substrate (20 µM final concentration) for 45 min up to 7 h at 37 °C. The release of 7-amino-4-trifluoromethylcoumarin (AFC) was measured by fluorescence (excitation at 405 nm, emission at 505 nm) using a Victor3 plate reader (Perkin Elmer, Courtaboeuf, France).
# SERCA = SERCA (Mus musculus, UniProt O55143); assay: SERCA-mediated 45Ca2+ store loading in permeabilized L15 fibroblasts; assay type: cell-based
# SERCA, sequence (O55143 whole entry): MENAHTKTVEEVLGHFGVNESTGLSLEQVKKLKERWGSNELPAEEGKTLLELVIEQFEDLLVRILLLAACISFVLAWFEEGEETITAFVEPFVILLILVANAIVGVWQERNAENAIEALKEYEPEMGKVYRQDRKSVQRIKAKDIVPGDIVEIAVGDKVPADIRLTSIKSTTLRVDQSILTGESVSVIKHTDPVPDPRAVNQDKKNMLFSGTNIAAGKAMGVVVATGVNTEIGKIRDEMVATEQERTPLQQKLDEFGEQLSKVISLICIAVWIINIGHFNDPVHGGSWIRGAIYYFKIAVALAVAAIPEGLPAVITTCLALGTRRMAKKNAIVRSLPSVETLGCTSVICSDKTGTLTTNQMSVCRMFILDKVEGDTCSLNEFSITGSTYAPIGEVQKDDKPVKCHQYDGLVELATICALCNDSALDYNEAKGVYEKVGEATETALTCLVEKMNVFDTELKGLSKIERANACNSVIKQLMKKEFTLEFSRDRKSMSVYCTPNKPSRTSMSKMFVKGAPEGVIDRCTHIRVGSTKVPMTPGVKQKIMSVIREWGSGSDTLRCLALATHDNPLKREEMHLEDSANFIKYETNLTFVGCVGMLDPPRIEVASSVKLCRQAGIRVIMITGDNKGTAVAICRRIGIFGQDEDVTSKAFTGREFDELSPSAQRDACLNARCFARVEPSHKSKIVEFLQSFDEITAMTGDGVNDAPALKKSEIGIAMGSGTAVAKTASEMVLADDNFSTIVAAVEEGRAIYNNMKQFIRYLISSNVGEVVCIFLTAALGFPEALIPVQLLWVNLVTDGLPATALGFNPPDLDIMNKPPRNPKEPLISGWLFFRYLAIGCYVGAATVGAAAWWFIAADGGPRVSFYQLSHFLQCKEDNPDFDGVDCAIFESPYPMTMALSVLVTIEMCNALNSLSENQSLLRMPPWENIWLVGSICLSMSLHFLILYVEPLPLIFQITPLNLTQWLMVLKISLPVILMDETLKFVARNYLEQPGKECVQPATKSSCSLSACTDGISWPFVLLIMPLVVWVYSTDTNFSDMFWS
# Description: (§1) Measurements of SERCA-mediated ^45Ca^2+ store loading and IP3-dependent release from the ER Ca^2+ store were performed on permeabilized cells in unidirectional conditions. As this approach required the use of cells forming strongly adherent monolayers, we used L15 fibroblasts stably overexpressing IP3R1, similarly to our previous work.
# The L15 fibroblasts stably overexpressing IP3R1 were seeded in gelatin-coated 12-well plates (Greiner, Frickenhausen, Germany) at a density of 60,000 cells per well. Unidirectional ^45Ca^2+ flux experiments on confluent cell monolayers were performed at 30 °C after membrane permeabilization with saponin (40 µg/mL), exactly as previously described. After permeabilization, the non-mitochondrial Ca^2+ stores were loaded for 45 min in 120 mM KCl, 30 mM imidazole–HCl (pH 6.8), 5 mM MgCl2, 5 mM ATP, 0.44 mM EGTA, 10 mM NaN3, and 150 nM free ^45Ca^2+ (28 µCi mL^−1). Subsequently, efflux was initiated by incubation in efflux medium (120 mM KCl, 1 mM EGTA, 10 µM TG and 30 mM imidazole–HCl pH 6.8). The latter medium was replaced every two minutes for 18 minutes. The exact amount of Ca^2+ at each time point is calculated by summing in retrograde order the amount of radioactivity remaining in the cells at the end of the efflux and the radioactivity collected during the successive time intervals. This allows to calculate the steady-state content of the ER Ca^2+ stores (indicative for the SERCA activity, after subtraction of the loading achieved in the presence of 2 µM TG) the basal leak rate of Ca^2+ out of the stores and the IP3-induced Ca^2+ release after addition of IP3 (0.7 µM). These various parameters were measured both in control conditions or in the presence of various 2-APB analogs as indicated. To assess the effect of the 2-APB analogs on the SERCA-mediated loading of the ER Ca^2+ stores, the analogs were added during the ^45Ca^2+-loading phase as described previously. Obviously, compounds that strongly stimulated the basal Ca^2+ leak out of the stores (as P8) could not be investigated for their effect on SERCA activity (as Ca^2+ loading was already compromised by the increased leak) or on IP3-induced Ca^2+ release (as the decreased luminal Ca^2+ level impacted both the driving force for Ca^2+ release and the sensitivity of the IP3R).
# [2] = tested on: ER Ca2+ stores of L15 fibroblasts; assay: Basal Ca2+ leak from ER stores, unidirectional 45Ca2+ flux in permeabilized L15 fibroblasts; assay type: cell-based
# Description: as §1
# The L15 fibroblasts stably overexpressing IP3R1 were seeded in gelatin-coated 12-well plates (Greiner, Frickenhausen, Germany) at a density of 60,000 cells per well. Unidirectional ^45Ca^2+ flux experiments on confluent cell monolayers were performed at 30 °C after membrane permeabilization with saponin (40 µg/mL), exactly as previously described. After permeabilization, the non-mitochondrial Ca^2+ stores were loaded for 45 min in 120 mM KCl, 30 mM imidazole–HCl (pH 6.8), 5 mM MgCl2, 5 mM ATP, 0.44 mM EGTA, 10 mM NaN3, and 150 nM free ^45Ca^2+ (28 µCi mL^−1). Subsequently, efflux was initiated by incubation in efflux medium (120 mM KCl, 1 mM EGTA, 10 µM TG and 30 mM imidazole–HCl pH 6.8). […] The exact amount of Ca^2+ at each time point is calculated by summing in retrograde order the amount of radioactivity remaining in the cells at the end of the efflux and the radioactivity collected during the successive time intervals. […] These various parameters were measured both in control conditions or in the presence of various 2-APB analogs as indicated. […]
# Jurkat cell SOCE = assay: Thapsigargin-induced SOCE in Jurkat cells, Indo-1 [Ca2+]cyt measurement; assay type: cell-based, human; details: Jurkat cells; for Ki: 1 µM thapsigargin 10 min, compound added 30 s prior to 1 mM CaCl2
# Description: To visualize SOCE, we performed a classical protocol: Jurkat cells in Ca^2+-free HBS medium are stimulated by 1 µM thapsigargin (TG, black arrow, Figure 2A) during 600 s to allow the release of Ca^2+ ions by the ER, and the subsequent opening of the store-operated Ca^2+ channels (SOCC). Addition of 1 mM CaCl2 allowed for a massive entry of Ca^2+ ions through SOCC leading thus to an increase of the cytosolic calcium concentration ([Ca^2+]cyt). To test 2-APB and its analogues, different concentrations of compounds were added 30 s prior to Ca^2+ addition.
# [Ca^2+]cyt was recorded by a fluorimetric ratio technique as previously described. Leukocytes were spun and resuspended at a density of 10^6 cells/mL in Hepes buffered saline (HBS; 135 mM NaCl, 5.9 mM KCl, 1.2 mM MgCl2, 11.6 mM Hepes, 11.5 mM glucose adjusted to pH 7.3 with NaOH). Due to the presence of 0.002% Ca^2+ in the NaCl, this HBS medium contained 0.1 mM of Ca^2+. Then, cells were incubated in the dark with 4 μM Indo-1-AM for one hour at room temperature under slow agitation. Cells were then centrifuged and resuspended in HBS medium before measurement. To perform the experiments, 0.5 to 1 × 10^6 cells were suspended in 2 mL HBS in a quartz cuvette and inserted into a spectrofluorophotometer (RF-1501 Shimadzu Corporation, Kyoto, Japan) connected to a PC computer (Dell Computer Corp., Montpellier, France). A temperature of 37°C was maintained by circulating water from a bath. Ultraviolet light of 360 nm was used for excitation of Indo-1, and emissions at 405 and 480 nm were recorded. Background and autofluorescence of the cell suspension were subtracted from the recordings. The maximum Indo-1 fluorescence (Rmax) was obtained by adding 1 µM ionomycin to the cell suspension in the presence of 10 mM extracellular CaCl2. Minimum fluorescence was determined following the depletion of external Ca^2+ with 5 mM EGTA.
# To visualize the SOCE, cells were placed into the quartz cuvette and 0.5 EGTA was added just before the beginning of the recordings. To induce the SOCE, the cells were treated with 1 μM thapsigargin (TG) during 10 min in Ca^2+-free HBS to induce Ca^2+ release from the ER and the opening of SOCE channels. Then, 1 mM CaCl2 was added to measure the change in [Ca^2+]cyt subsequently to Ca^2+ influx. In the dose-response experiments, different concentrations of 2-APB and its analogs were added 30 s prior to Ca^2+ readdition.
substance,measurement,setting,value
2-(dibiphenyl-4-ylboryloxy)ethanamine [P11],caspase-3 activity,"[1]; 10 µg/mL PHA + 1 µM P11, 24 h",3332 ± 113 AU
same,"caspase-3 activity, compound alone","[1]; P11 alone, up to 1 µM",did not induce any increase
same,concentration giving maximal activating effect on caspase-3 activity,"[1]; with 10 µg/mL PHA, 24 h",10 nM
same,effect on SERCA,SERCA; concentrations < 1 µM,devoid of any inhibitory activity; also recorded: without any effect
same,change of SERCA activity,SERCA; concentrations > 30 µM,−89 ± 1%
same,Ki,SERCA; permeabilized L15 fibroblasts,7400 ± 2000 nM
same,Ca2+ leak from the ER by an IP3-independent pathway,[2],did not induce a Ca^2+ leak
same,concentration of complete/full SOCE inhibition,Jurkat cell SOCE,below 1 µM
same,Ki,"Jurkat cell SOCE; read-out: Ki (nM), inhibition constant on SOCE",~75 nM and 75 nM
same,Ki,"Jurkat cell SOCE; read-out: Ki (µM), inhibition constant on SOCE",< 1000 nM
same,concentration at which SOCE is totally blocked,Jurkat cell SOCE; Figure 2B,> 100 nM
